US11566007B2, “Ras inhibitors” (Revolution Medicines, Inc., priority 2019, dated 2023)

Legend:
[1] = tested on: NCI-H358 (K-Ras G12C); test: CellTiter-Glo cell viability assay, NCI-H358; assay type: cell-based, human; settings: Homo sapiens, NCI-H358, 120 h, NCI-H358, 5-day treatment; class symbols; read-out: Additional H358 Cell Viability assay data (K-Ras G12C, IC50)
Outline: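 Compounds dispensed directly onto seeded K-Ras mutant cells; plates read on day 5 after ~30 min equilibration to room temperature, by CellTiter-Glo luminescence. Signal normalized as (sample/mean DMSO)×100, then fitted to a four-parameter logistic curve.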

[2] = biological target: K-Ras G13C (Homo sapiens (Human), UniProt P01116+P62937, G13C); test: Ras-Raf (BRAF RBD) disruption / FRET / MOA assay, KRAS G13C; assay type: biochemical; settings: KRAS G13C; Ras-Raf disruption/FRET/MOA assay; read-out: IC50* KRAS G13C FRET data
Outline: (§1)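 A 10-point, 3-fold dilution series topping at 30 μM final was incubated 3 h at 25° C with the Ras/cyclophilin A/BRAF RBD mixture.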

[3] = biological target: K-Ras G12C (Homo sapiens (Human), UniProt P01116+P62937, G12C); test: Ras-Raf (BRAF RBD) disruption / FRET / MOA assay, KRAS G12C; assay type: biochemical; settings: KRAS G12C; Ras-Raf disruption/FRET/MOA assay; read-out: IC50* KRAS G12C FRET data
Outline: as §1

[4] = tested on: NCI-H358 cells (K-Ras G12C); test: Potency assay: pERK in NCI-H358 cells; assay type: cell-based, human; settings: Homo sapiens, NCI-H358; H358 KRAS G12C; read-out: pERK EC50
Outline: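 pERK decrease read by AlphaLISA SureFire p-ERK1/2 or In-Cell Western after 4 h compound exposure at 37 °C, 5% CO2.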

[5] = biological target: KRAS G12S (Homo sapiens (Human), UniProt P01116+P62937, G12S); test: Ras-Raf (BRAF RBD) disruption / FRET / MOA assay, KRAS G12S; assay type: biochemical; settings: Ras-Raf disruption/FRET/MOA assay; class symbols; read-out: KRAS G12S FRET data IC50
Outline: as §1

[6] = biological target: KRAS G13D (Homo sapiens (Human), UniProt P01116+P62937, G13D); test: Ras-Raf (BRAF RBD) disruption / FRET / MOA assay, KRAS G13D; assay type: biochemical; settings: read-out: IC50* KRAS G13D FRET data
Outline: as §1

[7] = biological target: KRAS WT (Homo sapiens (Human), UniProt P01116+P62937); test: Ras-Raf (BRAF RBD) disruption / FRET / MOA assay, KRAS WT; assay type: biochemical; settings: read-out: IC50* KRAS WT FRET data
Outline: as §1

[8] = biological target: NRAS G12C (Homo sapiens (Human), UniProt P01111+P62937, G12C); test: Ras-Raf (BRAF RBD) disruption / FRET / MOA assay, NRAS G12C; assay type: biochemical; settings: read-out: IC50* NRAS G12C FRET data
Outline: as §1

[9] = biological target: KRAS G12V (Homo sapiens (Human), UniProt P01116+P62937, G12V); test: Ras-Raf (BRAF RBD) disruption / FRET / MOA assay, KRAS G12V; assay type: biochemical; settings: read-out: IC50* KRAS G12V FRET data
Outline: as §1

[10] = biological target: KRAS G12D (Homo sapiens (Human), UniProt P01116+P62937, G12D); test: Ras-Raf (BRAF RBD) disruption / FRET / MOA assay, KRAS G12D; assay type: biochemical; settings: Ras-Raf disruption/FRET/MOA assay; class symbols; read-out: KRAS G12D FRET data IC50
Outline: as §1

Chain of KRAS WT (P01116-2 other isoform, or with tags, fused parts or gaps): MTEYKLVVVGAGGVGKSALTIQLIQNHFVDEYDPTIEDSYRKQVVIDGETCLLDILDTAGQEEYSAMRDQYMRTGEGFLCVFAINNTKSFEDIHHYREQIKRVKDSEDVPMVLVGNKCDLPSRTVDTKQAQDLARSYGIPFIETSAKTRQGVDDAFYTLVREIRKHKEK
Chain of KRAS WT (P62937 whole entry): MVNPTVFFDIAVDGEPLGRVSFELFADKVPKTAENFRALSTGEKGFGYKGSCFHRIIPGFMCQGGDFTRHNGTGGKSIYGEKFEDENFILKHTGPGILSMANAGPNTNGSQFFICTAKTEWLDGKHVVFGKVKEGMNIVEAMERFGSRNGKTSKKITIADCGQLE
Chain of KRAS G12V (P01116-2 other isoform, or with tags, fused parts or gaps G12V): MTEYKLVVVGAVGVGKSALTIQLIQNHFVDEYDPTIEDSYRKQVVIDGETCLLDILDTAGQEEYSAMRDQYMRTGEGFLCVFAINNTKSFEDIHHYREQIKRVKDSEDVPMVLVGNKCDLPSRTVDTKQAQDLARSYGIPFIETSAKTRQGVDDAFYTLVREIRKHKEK
Chain of KRAS G12V (P62937 whole entry): as the sequence (P62937 whole entry) above
Chain of NRAS G12C (P01111 whole entry G12C): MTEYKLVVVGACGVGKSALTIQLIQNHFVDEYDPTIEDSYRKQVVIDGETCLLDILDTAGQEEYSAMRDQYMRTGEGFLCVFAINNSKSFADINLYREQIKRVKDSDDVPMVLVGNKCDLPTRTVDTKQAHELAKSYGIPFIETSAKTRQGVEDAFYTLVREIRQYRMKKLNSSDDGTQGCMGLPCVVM
Chain of NRAS G12C (P62937 whole entry): as the sequence (P62937 whole entry) above
Chain of KRAS G12S (P01116-2 other isoform, or with tags, fused parts or gaps G12S): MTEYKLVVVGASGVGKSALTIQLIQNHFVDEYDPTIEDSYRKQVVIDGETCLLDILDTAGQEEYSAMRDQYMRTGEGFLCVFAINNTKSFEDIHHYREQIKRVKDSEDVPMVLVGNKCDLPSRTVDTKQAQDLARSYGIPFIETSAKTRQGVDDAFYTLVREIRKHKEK
Chain of KRAS G12S (P62937 whole entry): as the sequence (P62937 whole entry) above
Chain of K-Ras G13C (P01116-2 other isoform, or with tags, fused parts or gaps G13C): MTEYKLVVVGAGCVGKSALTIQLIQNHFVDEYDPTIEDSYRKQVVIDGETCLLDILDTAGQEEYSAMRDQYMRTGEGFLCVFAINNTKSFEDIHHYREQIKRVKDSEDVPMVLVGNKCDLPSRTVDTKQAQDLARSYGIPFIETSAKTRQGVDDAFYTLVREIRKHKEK
Chain of K-Ras G13C (P62937 whole entry): as the sequence (P62937 whole entry) above
Chain of KRAS G12D (P01116-2 other isoform, or with tags, fused parts or gaps G12D): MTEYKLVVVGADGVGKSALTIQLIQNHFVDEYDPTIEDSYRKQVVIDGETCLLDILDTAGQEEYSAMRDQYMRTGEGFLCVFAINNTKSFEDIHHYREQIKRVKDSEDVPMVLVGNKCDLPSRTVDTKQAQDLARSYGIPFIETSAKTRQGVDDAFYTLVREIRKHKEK
Chain of KRAS G12D (P62937 whole entry): as the sequence (P62937 whole entry) above
Chain of KRAS G13D (P01116-2 other isoform, or with tags, fused parts or gaps G13D): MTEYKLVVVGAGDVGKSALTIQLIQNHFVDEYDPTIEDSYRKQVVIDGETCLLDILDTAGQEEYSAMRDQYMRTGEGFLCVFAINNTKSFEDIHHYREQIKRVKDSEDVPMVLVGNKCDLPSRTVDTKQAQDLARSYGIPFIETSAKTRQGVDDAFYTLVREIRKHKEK
Chain of KRAS G13D (P62937 whole entry): as the sequence (P62937 whole entry) above
Chain of K-Ras G12C (P01116-2 other isoform, or with tags, fused parts or gaps G12C): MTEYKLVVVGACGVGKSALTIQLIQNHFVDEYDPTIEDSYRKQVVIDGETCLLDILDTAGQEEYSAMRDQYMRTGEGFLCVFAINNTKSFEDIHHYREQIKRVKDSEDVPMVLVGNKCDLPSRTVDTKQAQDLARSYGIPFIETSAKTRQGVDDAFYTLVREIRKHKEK
Chain of K-Ras G12C (P62937 whole entry): as the sequence (P62937 whole entry) above

| SMILES | IC50 [1] [nM] | IC50 [2] [nM] | IC50 [3] [nM] | EC50 [4] [nM] | IC50 [5] [nM] | IC50 [6] [nM] | IC50 [7] [nM] | IC50 [8] [nM] | IC50 [9] [nM] | IC50 [10] [nM] |
| --- | --- | --- | --- | --- | --- | --- | --- | --- | --- | --- |
| C=CC(=O)N1CC[C@H](C(=O)N(C)[C@H](C(=O)N[C@H]2Cc3cc(O)cc(c3)-c3ccc4c(c3)c(c(-c3ccc(CN(C)C)nc3COC)n4CC)CC(C)(C)COC(=O)[C@@H]3CCCN(N3)C2=O)C(C)C)C1 [Example A103] | 100 to 1000 | 1000 to 10000 | 10 to 100 | < 5000 | 100 to 1000 | 1000 to 10000 | 1000 to 10000 | 10 to 100 | 100 to 1000 | 1000 to 10000 |
| C=CC(=O)N1CC[C@H](C(=O)N(C)[C@@H](C(=O)N[C@H]2Cc3cc(O)cc(c3)-c3ccc4c(c3)c(c(-c3cccc(CN(C)C)c3)n4CC)CC(C)(C)COC(=O)[C@@H]3CCCN(N3)C2=O)C(C)C)C1 [Example A106] | 100 to 1000 | > 10000 | 1000 to 10000 | < 5000 | > 10000 | > 10000 | > 10000 | 1000 to 10000 | > 10000 | > 10000 |
| CCn1c(-c2cncnc2)c2c3cc(ncc31)-c1cc(O)cc(c1)C[C@H](NC(=O)[C@H](C(C)C)N(C)C(=O)[C@H]1CCN(C(=O)C#CCN(C)C)C1)C(=O)N1CCC[C@H](N1)C(=O)OCC(C)(C)C2 [Example A108] | < 10 | 10 to 100 | < 10 | < 5000 | 1000 to 10000 | 1000 to 10000 | 1000 to 10000 | < 10 | 1000 to 10000 | 1000 to 10000 |
| C=CC(=O)N1CC[C@H](C(=O)N(C)[C@H](C(=O)N[C@H]2Cc3cc(O)cc(c3)-c3ccc4c(c3)c(c(-c3cc(CN(C)C)nn3C)n4CC)CC(C)(C)COC(=O)[C@@H]3CCCN(N3)C2=O)C(C)C)C1 [Example A109] | 100 to 1000 | > 10000 | 100 to 1000 | < 5000 | 1000 to 10000 | > 10000 | > 10000 | 100 to 1000 | 1000 to 10000 | > 10000 |
| C=CC(=O)N(C)[C@H](C(=O)N[C@H]1Cc2cc(O)cc(c2)-c2ccc3c(c2)c(c(-c2cccnc2COC)n3CC)CC(C)(C)COC(=O)[C@@H]2CCCN(N2)C1=O)C(C)C [Example A110] | 100 to 1000 | 100 to 1000 | 100 to 1000 | < 5000 | 1000 to 10000 | 1000 to 10000 | 100 to 1000 | 1000 to 10000 | 1000 to 10000 | 1000 to 10000 |
| C=CC(=O)N1CC[C@H](C(=O)N(C)[C@H](C(=O)N[C@H]2Cc3cc(O)cc(c3)-c3ccc4c(c3)c(c(-c3ccc(CN(C)C)c(COC)c3)n4CC)CC(C)(C)COC(=O)[C@@H]3CCCN(N3)C2=O)C(C)C)C1 [Example A111] | 10 to 100 | 1000 to 10000 | 100 to 1000 | < 5000 | 1000 to 10000 | 1000 to 10000 | 1000 to 10000 | 100 to 1000 | 1000 to 10000 | > 10000 |
| C=CC(=O)N1CC[C@H](C(=O)N(C)[C@H](C(=O)N[C@H]2Cc3cc(O)cc(c3)-c3ccc4c(c3)c(c(-c3cnccc3[C@H](C)OC)n4CC)CC(C)(C)COC(=O)[C@@H]3CCCN(N3)C2=O)C(C)C)C1 [Example A112] | 10 to 100 | 1000 to 10000 | 100 to 1000 | < 5000 | 1000 to 10000 | 1000 to 10000 | 1000 to 10000 | 100 to 1000 | 1000 to 10000 | > 10000 |
| CCn1c(-c2ccccc2CN(C)C)c2c3cc(ccc31)-c1cc(O)cc(c1)C[C@H](NC(=O)[C@H](C(C)C)N(C)C(=O)c1ncc(NC(=O)/C=C/CN(C)C)n1C)C(=O)N1CCC[C@H](N1)C(=O)OCC(C)(C)C2 [Example A116] | 100 to 1000 | 10 to 100 | < 10 | < 5000 | > 10000 | 1000 to 10000 | 1000 to 10000 | < 10 | > 10000 | 1000 to 10000 |
| C=CC(=O)N(C)CCC(=O)N(C)[C@H](C(=O)N[C@H]1Cc2cc(O)cc(c2)-c2ccc3c(c2)c(c(-c2cccnc2COC)n3CC)CC(C)(C)COC(=O)[C@@H]2CCCN(N2)C1=O)C(C)C [Example A117] | 100 to 1000 | 100 to 1000 | 100 to 1000 | < 5000 | 1000 to 10000 | 1000 to 10000 | 1000 to 10000 | 100 to 1000 | 1000 to 10000 | > 10000 |
| C=CC(=O)N1CC[C@H](C(=O)N(C)[C@H](C(=O)N[C@H]2Cc3csc(n3)-c3ccc4c(c3)c(c(-c3cccnc3COC)n4CC)CC(C)(C)COC(=O)[C@@H]3CCCN(N3)C2=O)C(C)C)C1 [Example A118, (2S)-N-[(7S,13S)-21-ethyl-20-[2-(methoxymethyl)pyridin-3-yl]-17,17-dimethyl-8,14-dioxo-15-oxa-3-thia-9,21,27,28-tetraazapentacyclo[17.5.2.1^2,^5.1^9,^13.0^22,^26]octacosa-1(25),2(28),4,19,22(26),23-hexaen-7-yl]-3-methyl-2-{N-methyl-1-[(3S)-1-(prop-2-enoyl)pyrrolidin-3-yl]formamido}butanamide] | 100 to 1000 | > 10000 | 100 to 1000 | < 5000 | > 10000 | > 10000 | > 10000 | 100 to 1000 | > 10000 | > 10000 |
| CCn1c(-c2cnccc2[C@H](C)OC)c2c3cc(ccc31)-c1cc(O)cc(c1)C[C@H](NC(=O)[C@H](C(C)C)N(C)C(=O)[C@H]1CCN(C(=O)C#CCN(C)C)C1)C(=O)N1CCC[C@H](N1)C(=O)OCC(C)(C)C2 [Example A123] | < 10 | 10 to 100 | 10 to 100 | < 5000 | 100 to 1000 | 100 to 1000 | 100 to 1000 | < 10 | 100 to 1000 | 100 to 1000 |
| C=CC(=O)N1CCN(C(=O)N(C)[C@H](C(=O)N[C@H]2Cc3cc(O)cc(c3)-c3ccc4c(c3)c(c(-c3ccccc3CCOC)n4CC)CC(C)(C)COC(=O)[C@@H]3CCCN(N3)C2=O)C(C)C)C[C@@H]1COC [Example A125] | > 1000 | 100 to 1000 | 100 to 1000 | < 5000 | 1000 to 10000 | 1000 to 10000 | 1000 to 10000 | 1000 to 10000 | 1000 to 10000 | > 10000 |
